According to PubChem BioAssay (NCI):
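Assay format: 96-well plates, 48-hour exposure. The concentration for full growth arrest is given as TGI.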

Tests used:
Test in all cases: NCI-60 cell line screen, 48 h
786-0 renal = tested on: 786-0 renal
A498 renal = tested on: A498 renal
A549 NSCLC = tested on: A549 NSCLC
ACHN renal = tested on: ACHN renal
BT-549 breast = tested on: BT-549 breast
CAKI-1 renal = tested on: CAKI-1 renal
COLO 205 colon = tested on: COLO 205 colon
DU-145 prostate = tested on: DU-145 prostate
EKVX NSCLC = tested on: EKVX NSCLC
HCC-2998 colon = tested on: HCC-2998 colon
HCT-116 colon = tested on: HCT-116 colon
HCT-15 colon = tested on: HCT-15 colon
HOP-62 NSCLC = tested on: HOP-62 NSCLC
HOP-92 NSCLC = tested on: HOP-92 NSCLC
HT29 colon = tested on: HT29 colon
IGROV1 ovarian = tested on: IGROV1 ovarian
K-562 leukemia = tested on: K-562 leukemia
KM12 colon = tested on: KM12 colon
M14 melanoma = tested on: M14 melanoma
MALME-3M melanoma = tested on: MALME-3M melanoma
MCF7 breast = tested on: MCF7 breast
MDA-MB-231 breast = tested on: MDA-MB-231 breast
MDA-MB-435 = tested on: MDA-MB-435
MDA-N = tested on: MDA-N
MOLT-4 leukemia = tested on: MOLT-4 leukemia
NCI-H226 lung = tested on: NCI-H226 lung
NCI-H23 lung = tested on: NCI-H23 lung
NCI-H460 lung = tested on: NCI-H460 lung
NCI-H522 lung = tested on: NCI-H522 lung
NCI/ADR-RES ovarian = tested on: NCI/ADR-RES ovarian
OVCAR-3 ovarian = tested on: OVCAR-3 ovarian
OVCAR-4 ovarian = tested on: OVCAR-4 ovarian
OVCAR-5 ovarian = tested on: OVCAR-5 ovarian
PC-3 prostate = tested on: PC-3 prostate
RPMI-8226 leukemia = tested on: RPMI-8226 leukemia
RXF 393 renal = tested on: RXF 393 renal
SF-268 CNS = tested on: SF-268 CNS
SF-295 CNS = tested on: SF-295 CNS
SK-MEL-2 melanoma = tested on: SK-MEL-2 melanoma
SK-MEL-28 melanoma = tested on: SK-MEL-28 melanoma
SK-OV-3 ovarian = tested on: SK-OV-3 ovarian
SN12C renal = tested on: SN12C renal
SNB-19 CNS = tested on: SNB-19 CNS
SNB-75 CNS = tested on: SNB-75 CNS
SW-620 colon = tested on: SW-620 colon
TK-10 renal = tested on: TK-10 renal
U251 CNS = tested on: U251 CNS
UACC-257 melanoma = tested on: UACC-257 melanoma
UACC-62 melanoma = tested on: UACC-62 melanoma
UO-31 renal = tested on: UO-31 renal

Measured: TGI

NCCC(=O)N[C@@H](Cc1cc(O)c(O)c(SCC(NC(=O)CC[C@H](N)C(=O)O)C(=O)NCC(=O)O)c1)C(=O)O (stereo not given in full)
> 50 µM: 786-0 renal | A498 renal | A549 NSCLC | ACHN renal | BT-549 breast | CAKI-1 renal | COLO 205 colon | DU-145 prostate | EKVX NSCLC | HCC-2998 colon | HCT-116 colon | HCT-15 colon | HOP-62 NSCLC | HOP-92 NSCLC | HT29 colon | IGROV1 ovarian | K-562 leukemia | KM12 colon | M14 melanoma | MALME-3M melanoma | MCF7 breast | MDA-MB-231 breast | MDA-MB-435 | MDA-N | MOLT-4 leukemia | NCI-H226 lung | NCI-H23 lung | NCI-H460 lung | NCI-H522 lung | NCI/ADR-RES ovarian | OVCAR-3 ovarian | OVCAR-4 ovarian | OVCAR-5 ovarian | PC-3 prostate | RPMI-8226 leukemia | RXF 393 renal | SF-268 CNS | SF-295 CNS | SK-MEL-2 melanoma | SK-MEL-28 melanoma | SK-OV-3 ovarian | SN12C renal | SNB-19 CNS | SNB-75 CNS | SW-620 colon | TK-10 renal | U251 CNS | UACC-257 melanoma | UACC-62 melanoma | UO-31 renal
